# Reference: patent US10178866B2, “N-halamine containing fibrous compositions and uses thereof” (priority 2014, dated 2019)
# Tests used:
# Type in all cases: cell-based
# [1] = tested on: Staphylococcus aureus ATCC 6538; experiment: sandwich contact test, polypropylene nonwoven face-piece material; details: inoculum 6.26 log
# Procedure: (§1) Compound I (1-chloro-2,2,5,5-tetramethyl-imidazolindinone) at 1 wt %) was dissolved in ethyl alcohol solution at room temperature, and then 300 cm^2 pieces of polypropylene nonwoven fabrics were soaked in the solution for 10 minutes. The fabrics were then padded through a laboratory wringer (Birch Brothers Southern, Waxhaw, N.C., U.S.A.) at low pressure settings. This procedure was followed by drying the fabrics at room temperature for 24 hours. The control fabrics were untreated 22 g/m^2 and 50 g/m^2 polypropylene nonwovens.
# (§2) Two types of tests were conducted in order to determine the biocidal efficacy of the face mask embodiments. Staphylococcus aureus (S. aureus, ATCC 6538) was used as a Gram-positive bacterium and Escherichia coli(E. coli O157:H7, ATCC 43895) was used as a Gram-negative bacterium in order to challenge the treated (impregnated with compound I) and non-treated (control) fabrics.
# (§3) In the first method, a “sandwich test” was used (see Worley et al., “Novel N-halamine Siloxane Monomers and Polymers for Preparing Biocidal Coatings,” Surf Coat. Int., Part B, 2005; 88:93). In this procedure, bacteria were suspended in 100 μM phosphate buffer (pH 7) to produce a suspension of known concentration of bacteria (colony forming units, CFU/mL). Then, an aliquot of 25 μL of this suspension was placed in the center of a 2.54 cm square swatch, and a second identical swatch was placed on top. Both swatches were covered by a sterile weight to ensure sufficient contact with the bacteria. After predetermined contact times, samples were quenched by 5.0 mL of sterile 0.02 N sodium thiosulfate solution to neutralize the oxidative chlorine and thus terminate the disinfection action. Samples were vortexed for 2 minutes, and then serial dilutions were prepared using pH 7, 100 μM phosphate buffer and plated on Trypticase soy agar plates. After incubating the plates at 37° C. for 24 hours, bacterial colonies were counted for the biocidal efficacy analysis. For each contact time a single fabric swatch sandwich was vortexed in a quenching solution to wash the bacteria into a suspension which was immediately plated into duplicate serial dilutions followed by incubation and counting the viable colonies of bacteria. All experiments were performed at least twice (on different days) using different bacterial inocula.
# (§4) Antimicrobial efficacy of the mask materials was analyzed by the sandwich contact test method. The antimicrobial efficacies of the treated (impregnated with compound I) and non-treated (control) swatches were evaluated by challenging both types of fabrics against S. aureus and E. coli O157:H7 where the bacteria inoculum population was 1.80×10^6 CFU and 1.27×10^6 CFU, respectively. In Table 2, antimicrobial results are summarized at different contact time intervals.
# [2] = tested on: Escherichia coli O157:H7 ATCC 43895; experiment: as above; details: inoculum 6.10 log
# Procedure: as §1, §2, §3, §4
# [3] = tested on: Staphylococcus aureus ATCC 6538; experiment: sandwich test, gauze pads (wound dressing); details: chlorine loading 0.47 ± 0.01 wt %, inoculum 6.00 logs
# Procedure: (§5) Compound I at a concentration of 1% by weight was dissolved in ethyl alcohol at room temperature. Non-stick gauze pads sized 20.3×7.6 cm (8×3 inch) obtained from Curad® were soaked in the solution for 10 minutes. The gauze pads were then passed through a laboratory wringer (Birch Brothers Southern, Waxhaw, N.C., U.S.A.) at low pressure settings. This procedure was followed by drying the samples at room temperature overnight. The titrated oxidative chlorine loading of the gauze pads was 0.47±0.01 wt %.
# (§6) Gauze pads impregnated with compound I and non-impregnated sterile gauze pads (used as received as controls) were challenged with Staphylococcus aureus (S. aureus, ATCC 6538), Escherichia coli(E. coli O157:H7, ATCC 43895), and Pseudomonas aeruginosa (P. aeruginosa, ATCC 27853). The bacteria were suspended in 100 μM phosphate buffer (pH 7) to produce a suspension of known population (colony forming units, CFU/mL). Then, an aliquot of 25 μL of this suspension was placed in the center of a 2.54×2.54 cm^2 gauze swatch, and a second identical swatch was placed on top. Both swatches were covered by a sterile weight to ensure sufficient contact with the bacteria. After predetermined contact times, samples were quenched by 5.0 mL of sterile 0.02 N sodium thiosulfate solution to neutralize the oxidative chlorine and thus terminate the disinfection action. Samples were vortexed for 2 minutes, and then serial dilutions were prepared using pH 7, 100 μM phosphate buffer and plated on Trypticase soy agar plates. After the plates were incubated at 37° C. for 24 hours, viable bacterial colonies were counted for the biocidal efficacy analysis.
# [4] = tested on: Pseudomonas aeruginosa ATCC 27853; experiment: sandwich test, gauze pads (wound dressing); details: chlorine loading 0.47 ± 0.01 wt %, inoculum 6.12 logs
# Procedure: as §5, §6
# [5] = tested on: Escherichia coli O157:H7 ATCC 43895; experiment: sandwich test, gauze pads (wound dressing); details: chlorine loading 0.47 ± 0.01 wt %, inoculum 5.86 logs
# Procedure: as §5, §6
# [6] = 22 g/m^2 fabric, Cl^+ % = 0.52, contact time 5 min
# [7] = 22 g/m^2 fabric, Cl^+ % = 0.52, contact time 10 min
# [8] = 22 g/m^2 fabric, Cl^+ % = 0.52, contact time 15 min
# [9] = 22 g/m^2 fabric, Cl^+ % = 0.52, contact time 30 min
# [10] = 50 g/m^2 fabric, Cl^+ % = 0.52, contact time 5 min
# [11] = 50 g/m^2 fabric, Cl^+ % = 0.52, contact time 10 min
# [12] = 50 g/m^2 fabric, Cl^+ % = 0.52, contact time 15 min
# [13] = 50 g/m^2 fabric, Cl^+ % = 0.52, contact time 30 min
# [14] = contact time 1 min, listed as compound I
structure (smiles),measurement,setting,value
"CC1(C)NC(=O)C(C)(C)N1Cl [Compound I, 1-chloro-2,2,5,5-tetramethyl-4-imidazolidinone]",Bacterial reduction (log) S. aureus,[1]; [6],4.13 log
same,Bacterial reduction (log) S. aureus,[1]; [7],6.26 log
same,Bacterial reduction (log) S. aureus,[1]; [8],6.26 log
same,Bacterial reduction (log) S. aureus,[1]; [9],6.26 log
same,Bacterial reduction (log) S. aureus,[1]; [10],6.26 log
same,Bacterial reduction (log) S. aureus,[1]; [11],6.26 log
same,Bacterial reduction (log) S. aureus,[1]; [12],6.26 log
same,Bacterial reduction (log) S. aureus,[1]; [13],6.26 log
same,Bacterial reduction (log) E. coli,[2]; [6],3.68 log
same,Bacterial reduction (log) E. coli,[2]; [7],6.10 log
same,Bacterial reduction (log) E. coli,[2]; [8],6.10 log
same,Bacterial reduction (log) E. coli,[2]; [9],6.10 log
same,Bacterial reduction (log) E. coli,[2]; [10],3.80 log
same,Bacterial reduction (log) E. coli,[2]; [11],6.10 log
same,Bacterial reduction (log) E. coli,[2]; [12],6.10 log
same,Bacterial reduction (log) E. coli,[2]; [13],6.10 log
same,Bacterial reduction (log) S. aureus,[3]; contact time 1 min,3.07 log
same,Bacterial reduction (log) S. aureus,[3]; contact time 5 min,6.00 log
same,Bacterial reduction (log) S. aureus,[3]; contact time 10 min,6.00 log
same,Bacterial reduction (log) S. aureus,[3]; contact time 30 min,6.00 log
same,Bacterial Reduction (log) P. aeruginosa,[4]; contact time 1 min,6.12 log
same,Bacterial Reduction (log) P. aeruginosa,[4]; [14],about 6 log
same,Bacterial Reduction (log) P. aeruginosa,[4]; contact time 5 min,6.12 log
same,Bacterial Reduction (log) P. aeruginosa,[4]; contact time 10 min,6.12 log
same,Bacterial Reduction (log) P. aeruginosa,[4]; contact time 30 min,6.12 log
same,Bacterial Reduction (log) E. coli O157:H7,[5]; contact time 1 min,5.86 log
same,Bacterial Reduction (log) E. coli O157:H7,[5]; [14],about 6 log
same,Bacterial Reduction (log) E. coli O157:H7,[5]; contact time 5 min,5.86 log
same,Bacterial Reduction (log) E. coli O157:H7,[5]; contact time 10 min,5.86 log
same,Bacterial Reduction (log) E. coli O157:H7,[5]; contact time 30 min,5.86 log
